# Several values for one entry are separate records, joined by “and”; a condition that tells them apart may be missing. Identical values can stand only once.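 Exposure lasted 48 hours, with cells grown in 96-well plates and compounds tested at five concentrations. GI50 is the concentration that inhibits growth by half.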 Activity calls are given as the source filed them. No stated cut-off is given here; in the data, active = GI50 up to about 1.1 µM and inactive = higher.
# Key:
# Assay in all cases: inhibition of tumour cell growth, NCI panel, 48 h
# HCC 2998 = tested on: HCC 2998
# U-251 = tested on: U-251
# SK-MEL-2 = tested on: SK-MEL-2
# SNB-19 = tested on: SNB-19
# OVCAR-8 = tested on: OVCAR-8
# MCF7 = tested on: MCF7
# MDA-N = tested on: MDA-N
# LOX IMVI = tested on: LOX IMVI
# SW-620 = tested on: SW-620
# A549 = tested on: A549
# IGROV-1 = tested on: IGROV-1
# RPMI-8226 = tested on: RPMI-8226
# T47D = tested on: T47D
# SF-295 = tested on: SF-295
# SK-MEL-28 = tested on: SK-MEL-28
# PC-3 = tested on: PC-3
# SR = tested on: SR
# Malme-3M = tested on: Malme-3M
Compound,GI50 (HCC 2998),GI50 (U-251),GI50 (SK-MEL-2),GI50 (SNB-19),GI50 (OVCAR-8),GI50 (MCF7),GI50 (MDA-N),GI50 (LOX IMVI),GI50 (SW-620),GI50 (A549),GI50 (IGROV-1),GI50 (RPMI-8226),GI50 (T47D),GI50 (SF-295),GI50 (SK-MEL-28),GI50 (PC-3),GI50 (SR),GI50 (Malme-3M)
Nc1nc(Cl)c(N)c(NCC2(CO)CC(Cc3ccccc3)C2)n1 (stereo not given),> 93.5 µM (inactive),14.6 µM (inactive),52.6 µM (inactive),> 66.4 µM (inactive),56.9 µM (inactive),7.87 µM (inactive),33.3 µM (inactive),2.42 µM (inactive),> 72.8 µM (inactive),> 75 µM (inactive),> 78.5 µM (inactive),2.41 µM (inactive),0.923 µM (active),> 100 µM (inactive),> 100 µM (inactive),51.3 µM (inactive),,
Cc1ccc(C(=O)/C=C/N2CCN(c3cccc(C(F)(F)F)c3)CC2)cc1,12.4 µM (inactive),16.8 µM (inactive),18.6 µM (inactive),30.1 µM (inactive),17.5 µM (inactive),18 µM (inactive),,,20.6 µM (inactive),22.9 µM (inactive),16.3 µM (inactive),31.9 µM (inactive),20.1 µM (inactive),17.5 µM (inactive),19.7 µM (inactive),25.1 µM (inactive),19.8 µM (inactive),18.6 µM (inactive)
CC(=O)O[C@H]1[C@@H](N2CCCCC2)C[C@H]2[C@@H]3CC=C4C[C@@H](N5CCCC5)CC[C@]4(C)[C@H]3CC[C@@]21C,14.3 µM (inactive),69 µM (inactive),> 100 µM (inactive),> 100 µM (inactive),> 100 µM (inactive),> 100 µM (inactive),,35.6 µM (inactive),> 100 µM (inactive),> 100 µM (inactive),> 100 µM (inactive),26.5 µM (inactive),> 100 µM (inactive),67.5 µM (inactive),22 µM (inactive),43.4 µM (inactive),2.74 µM (inactive),22.8 µM (inactive)
COC(=O)c1c(C#N)c(N)nc2c1CCC2,> 100 µM (inactive),> 100 µM (inactive),> 100 µM (inactive),> 100 µM (inactive),> 100 µM (inactive),> 100 µM (inactive),> 100 µM (inactive),> 100 µM (inactive),> 100 µM (inactive),> 100 µM (inactive),> 100 µM (inactive),> 100 µM (inactive),75.5 µM (inactive),> 100 µM (inactive),> 100 µM (inactive),> 100 µM (inactive),,> 100 µM (inactive)
N#Cc1c(N2CCC(O)C2)c2ccccc2n2c1nc1ccccc12 (stereo not given),> 100 µM (inactive),,43.4 µM (inactive),32.1 µM (inactive),45.7 µM (inactive),> 100 µM (inactive),> 100 µM (inactive),> 100 µM (inactive),> 100 µM (inactive),> 100 µM (inactive),69.2 µM (inactive),> 100 µM (inactive),64.3 µM (inactive),31 µM (inactive),> 100 µM (inactive),> 100 µM (inactive),,40.4 µM (inactive)
CC(=O)O[C@H]1CC[C@@H](OC(C)=O)[C@H]2[C@H](O)[C@H](O)[C@@H]1n1c(=O)n(-c3ccccc3)c(=O)n12,,> 100 µM (inactive),> 100 µM (inactive),> 100 µM (inactive),> 100 µM (inactive),> 100 µM (inactive),> 100 µM (inactive),> 100 µM (inactive),> 100 µM (inactive),> 100 µM (inactive),> 100 µM (inactive),> 100 µM (inactive),> 100 µM (inactive),> 100 µM (inactive),> 100 µM (inactive),> 100 µM (inactive),,> 100 µM (inactive)
Nc1nc(N)c2ncn(CC3CCC(CO)C3)c2n1 (stereo not given),> 100 µM (inactive),> 100 µM (inactive),> 100 µM (inactive),> 100 µM (inactive),,> 100 µM (inactive),> 100 µM (inactive),> 100 µM (inactive),> 100 µM (inactive),> 100 µM (inactive),,> 100 µM (inactive),> 100 µM (inactive),> 100 µM (inactive),> 100 µM (inactive),> 100 µM (inactive),,
CCOC(=O)C1CCCCN1C(=O)Cc1c[nH]c2ccccc12 (stereo not given),77.8 µM (inactive),67.3 µM (inactive),61.9 µM (inactive),> 100 µM (inactive),42.4 µM (inactive),37.5 µM (inactive),49.8 µM (inactive),59.4 µM (inactive),94.8 µM (inactive),55.2 µM (inactive),57.7 µM (inactive),20 µM (inactive),37 µM (inactive),66.2 µM (inactive),> 100 µM (inactive),31.7 µM (inactive),,57.4 µM (inactive)
CC1(C)CC2=C(SC3C=CC=CC3N2)C(=O)C1C(=O)C(N)=O (stereo not given),> 100 µM (inactive),> 100 µM (inactive),> 100 µM (inactive),> 100 µM (inactive),> 100 µM (inactive),> 100 µM (inactive),> 100 µM (inactive),> 100 µM (inactive),> 100 µM (inactive),> 100 µM (inactive),> 100 µM (inactive),,,> 100 µM (inactive),> 100 µM (inactive),65.9 µM (inactive),,
COC(=O)c1nc(C(=O)OC)c2c([nH]c3ccccc32)c1C(=O)OC,> 100 µM (inactive),99.8 µM (inactive),> 100 µM (inactive),,> 100 µM (inactive),,,58.5 µM (inactive),> 100 µM (inactive),> 100 µM (inactive),> 100 µM (inactive),,,91.4 µM (inactive),88.9 µM (inactive),,70.3 µM (inactive),> 100 µM (inactive)
Cc1ccc(-n2cc(-c3ccc(Cl)cc3)c(C#N)c2N)cc1,14.9 µM (inactive),14.2 µM (inactive),15.2 µM (inactive),17.3 µM (inactive),15.9 µM (inactive),14.6 µM (inactive),18.5 µM (inactive),15 µM (inactive),13.2 µM (inactive),17.4 µM (inactive),15.9 µM (inactive),,,17.5 µM (inactive),18.1 µM (inactive),12.6 µM (inactive),6.67 µM (inactive),18 µM (inactive)
Cc1ccc(/N=N/c2cc(=O)[nH]c(=O)[nH]2)cc1C,5.01 µM (inactive),15.2 µM (inactive),,17.2 µM (inactive),14.6 µM (inactive),12.3 µM (inactive),12.2 µM (inactive),1.71 µM (inactive),4.03 µM (inactive),18.5 µM (inactive),13.9 µM (inactive),3.01 µM (inactive),,15.3 µM (inactive),15.6 µM (inactive),2.71 µM (inactive),3.6 µM (inactive),14.4 µM (inactive)
COc1ccccc1OCC(=N/NC(=O)c1ccncc1)/N=C/c1ccncc1,> 100 µM (inactive),> 100 µM (inactive),> 100 µM (inactive),> 100 µM (inactive),> 100 µM (inactive),> 100 µM (inactive),> 100 µM (inactive),> 100 µM (inactive),> 100 µM (inactive),> 100 µM (inactive),> 100 µM (inactive),> 100 µM (inactive),> 100 µM (inactive),> 100 µM (inactive),> 100 µM (inactive),> 100 µM (inactive),,> 100 µM (inactive)
O=c1[nH]c(=O)n(C2OC(CO)C(O)C2O)c2ccsc12 (stereo not given),> 100 µM (inactive),> 100 µM (inactive),> 100 µM (inactive),,> 10 µM (inactive),> 100 µM (inactive),> 100 µM (inactive),> 100 µM (inactive),> 100 µM (inactive),> 100 µM (inactive),> 100 µM (inactive),> 100 µM (inactive),,> 100 µM (inactive),> 100 µM (inactive),> 100 µM (inactive),> 100 µM (inactive),> 100 µM (inactive)
Cc1cc(C)c(N)c(CO)c1,74.5 µM (inactive) and 71.1 µM (inactive),61.1 µM (inactive) and 56.1 µM (inactive),> 100 µM (inactive),> 100 µM (inactive),> 100 µM (inactive),,> 100 µM (inactive),> 100 µM (inactive),> 88.3 µM (inactive) and 95.3 µM (inactive),42.8 µM (inactive) and 73.6 µM (inactive),,> 100 µM (inactive),,> 73.6 µM (inactive) and > 74.8 µM (inactive),> 100 µM (inactive),> 100 µM (inactive),> 100 µM (inactive),> 100 µM (inactive)
CC(=O)NNc1nc(C)c(C(=O)/C=C/C=C/c2ccccc2)s1,> 100 µM (inactive),71.9 µM (inactive),,> 100 µM (inactive),> 100 µM (inactive),> 100 µM (inactive),> 100 µM (inactive),> 100 µM (inactive),> 100 µM (inactive),,33.7 µM (inactive),76 µM (inactive),33.2 µM (inactive),> 100 µM (inactive),> 100 µM (inactive),,80.9 µM (inactive),> 100 µM (inactive)
Oc1nc(S)nc2nc3c4cccnc4c4ccccc4c3nc12,> 100 µM (inactive),> 100 µM (inactive),,> 100 µM (inactive),> 100 µM (inactive),88.3 µM (inactive),> 100 µM (inactive),,> 100 µM (inactive),> 100 µM (inactive),> 100 µM (inactive),45.8 µM (inactive),,> 100 µM (inactive),77.1 µM (inactive),> 100 µM (inactive),50.4 µM (inactive),> 100 µM (inactive)

# Source: ChEMBL document CHEMBL1201862, “PubChem BioAssay data set” (2004)
